The test system of one data set is HeLa cells. Put plainly: in vitro. The class given is cell-based, human. The method, then: (§1) HeLa cells were grown in Dulbecco's Modified Eagle Medium (DMEM) supplemented with penicillin (10 units/mL), streptomycin (10 units/mL), […] (2 mM), and heat-inactivated fetal bovine serum (10% v/v) at 37° C. in a 5% CO2 atmosphere. HeLa cells were seeded into 384-well plates (500 cells per well) and incubated in DMEM at 37° C. with 5% CO2 for 16 h to allow cells to adhere. The OD570 readings were used to calculate relative growth (%) based on the positive (2 μM Taxol™, 0%) and negative (DMSO, 100%) controls. The cytotoxicity assay was performed in quadruplicate (n=4) and analyzed according to protocol reported previously (Chu Jet al., 2019, J. Am. Chem. Soc., 141:15737-15741).

The next data set concerns A. baumannii. The data set is described as follows: MIC determination by broth microdilution. The class given is cell-based, Acinetobacter baumannii. In general terms: In broth dilution the organism is exposed to a series of concentrations in liquid medium.
In the next data set the test system is E. coli DH5α. The data set is described as follows: MIC determination by broth microdilution. Type of data set: cell-based, Escherichia coli.
For another data set, the system named is P. aeruginosa. The data set is described as follows: MIC determination by broth microdilution. Type of data set: cell-based, Pseudomonas aeruginosa.
The subject of another data set is M. tuberculosis H37Rv. To be noted: highest concentration tested 12.5 μg/mL.
Data set [1] deals with S. aureus farER deletion mutant with constitutive overexpression of the farER effux system (pALCfarER).
In data set [2] the test system is S. aureus farER deletion mutant.
For another data set, the system named is S. aureus SH1000 ΔclpP. The following applies: clpP deletion.
A further data set in a line: in vitro. Type of data set: cell-based, human. The following applies: human. The method, then: as §1
Another data set relates to S. aureus or B. subtilis. The data set is described as follows: Membrane lysis assay (SYTOX fluorescence). To be noted: initial assays, FIG. 4C and 4D. Type of data set: cell-based.
Data set [3] has as its system Bacillus subtilis, Escherichia coli, and the ESKAPE pathogens. The data set is described as follows: Antibacterial activity / MIC against screening panel of bacteria. Type of data set: cell-based. To be noted: panel of Gram-positive and Gram-negative bacteria, FIG. 4A. The source says:
To identify antibacterial active syn-BNPs, each fraction, containing the mass of a target syn-BNP cyclic peptide against Bacillus subtilis, Escherichia coli, and the ESKAPE pathogens, was screened. ESKAPE pathogens represented the bacteria most commonly associated with antibiotic-resistant nosocomial infections: Enterococcus faecium, Staphylococcus aureus, Klebsiella pneumoniae, Acinetobacter baumannii, Pseudomonas aeruginosa, and Enterobacter cloacae (Boucher H W et al., 2009, Clin. Infect. Dis., 48:1-12).
In the initial screen, semi-pure peptides were spotted on solid growth media seeded with each bacterium. […]
Standard susceptibility assays were performed in the appropriate growth medium in 96-well microtiter plates to determine the MIC by the broth microdilution method in accordance to protocols recommended by Clinical and Laboratory Standards Institute (Weinstein MP, 2012, Methods for dilution antimicrobial susceptibility tests for bacteria that grow aerobically, 9th edition; Clinical and Laboratory Standards Institute, Wayne, Pa.). For polymyxin-supplemented assays, the MIC of polymyxin against a bacterium was first determined (lx MIC). […] The measured MICs were as follows: E. coli DH5α (0.0625 μg/mL), K. pneumoniae and P. aeruginosa (0.15 μg/mL), A. baumannii ([…]), and E. cloacae (2 μg/mL). […]

Values after ≈ are worked out from the molar mass of the structure shown. Residues, ends and D or L forms follow the SMILES beside them.

This is an account of results in patent US20230272010A1, “ANTIBACTERIAL SYNTHETIC-BIOINFORMATIC NATURAL PRODUCTS AND USES THEREOF” (The Rockefeller University, priority 2020, published 2023).

Regarding `CCCCCCCCCCCC1CC(=O)N[C@H](Cc2ccccc2)C(=O)N[C@H](CCCN)C(=O)N[C@@H](C(C)C)C(=O)N[C@@H]([C@@H](C)CC)C(=O)N[C@@H](Cc2ccccc2)C(=O)N[C@@H](C)C(=O)N[C@@H](Cc2ccccc2)C(=O)N1` (stereo partly shown) [SyCPA 144, mucilasyn] (HELM PEPTIDE1{A.F.[CCCCCCCCCCCC(CC(=O)[*:2])N[*:1]].[dF].[NCCC[C@@H](N[*:1])C(=O)[*:2]].V.I.F}$PEPTIDE1,PEPTIDE1,1:R1-8:R2$$$V2.0), in the data set with HeLa cells, the “Cytotoxicity (in words)” value is recorded as “lack of toxicity to human cells in vitro”.

With polymyxin, the MIC of polymyxin in the data set with A. baumannii was 0.3 μ/mL; with E. coli DH5α, 0.0625 µg/mL; in the data set with K. pneumoniae, 0.15 µg/mL; in the data set on P. aeruginosa it was 0.15 µg/mL.

In the case of `CCCCCCCCCCCCCC(=O)N[C@H]1CCCNC(=O)[C@H](CC(C)C)NC(=O)[C@H](CCCNC(=N)N)NC(=O)[C@H]([C@@H](C)CC)NC(=O)[C@@H](CCCNC(=N)N)NC1=O` [SyCPA 63, thurinsyn] (HELM PEPTIDE1{[CCCCCCCCCCCCCC(=O)[*:2]].[Orn].[dR].I.R.L}$PEPTIDE1,PEPTIDE1,2:R3-6:R2$$$V2.0), the MIC stood at 8 µg/mL (≈ 9.27 µM) against K. pneumoniae and 6 µg/mL (≈ 6.95 µM) in the data set on M. tuberculosis H37Rv. The “Cytotoxicity (in words)” value in the data set on HeLa cells was “minimal HeLa cell cytotoxicity”.

In the case of `CCCCCCCCCCCC1CC(=O)N[C@H](CC(C)C)C(=O)N[C@H](CN)C(=O)N[C@@H](C(C)C)C(=O)N[C@@H](CO)C(=O)N[C@@H]([C@@H](C)CC)C(=O)N1` (stereo partly drawn) [SyCPA 116, collimosyn] (HELM PEPTIDE1{I.[CCCCCCCCCCCC(CC(=O)[*:2])N[*:1]].[dL].[NC[C@@H](N[*:1])C(=O)[*:2]].V.S}$PEPTIDE1,PEPTIDE1,1:R1-6:R2$$$V2.0), the MIC in [1] was above 64 µg/mL; in data set [2], 8 µg/mL (≈ 11 µM). In the data set on S. aureus SH1000 ΔclpP, the “Resistance (MIC)” value was above 128 µg/mL. Further, in the data set “in vitro”, inhibition was half-maximal at 11 µg/mL (≈ 15.2 µM) (IC50). Further, the “Cytotoxicity (in words)” value in the data set on HeLa cells was “showed human cell line toxicity”.

As for `CCCCCCCCCCCCCC(=O)N[C@@H]1CNC(=O)[C@@H]2CCCN2C(=O)[C@H](Cc2ccccc2)NC(=O)[C@@H](C(C)C)NC(=O)[C@H](C)NC(=O)[C@@H](CCC(N)=O)NC(=O)[C@H]2CCCN2C1=O` [SyCPA 2] (HELM PEPTIDE1{[CCCCCCCCCCCCCC(=O)[*:2]].[O=C([C@@H](CN[*:3])N[*:1])[*:2]].[dP].[dQ].A.[dV].F.P}$PEPTIDE1,PEPTIDE1,2:R3-8:R2$$$V2.0), the “SYTOX or DiSC3(5) fluorescence” value in the data set on S. aureus or B. subtilis is on record as “slight increase in either SYTOX or DiSC3(5) fluorescence”. Moreover, the Spectrum of activity entry in data set [3] is “broader Gram-positive activity”. The compound further displayed an IC50 in “in vitro” of 16 µg/mL (≈ 17.1 µM).

The term MIC denotes the least concentration at which growth counts as inhibited. Usually IC50 stands for the concentration that inhibits the measured activity by half.
